{"source": "patent EP3094315B1", "about": "“PHARMACEUTICAL COMPOSITION COMPRISING ARIPIPRAZOLE OR SALT THEREOF” (Pharmathen S.A., priority 2014, dated 2015)", "origin": "cited, not measured here", "note": "Where two headings read alike, the source gives them in different places."}
{"smiles": "O=C1CCc2ccc(OCCCCN3CCN(c4cccc(Cl)c4Cl)CC3)cc2N1", "note": "[Aripiprazole, 7-{4-[4-(2,3-dichlorophenyl)piperazin-1-yl]butoxy}-3,4-dihydroquinolin-2(1H)-one]", "values": [{"measurement": "solubility", "setting": "in N,N-dimethyl formamide", "value": "freely soluble"}, {"measurement": "solubility", "setting": "in dichloromethane", "value": "freely soluble"}, {"measurement": "solubility", "setting": "in water", "value": "practically insoluble"}]}
